# Laboratory results reported in US20260225997A1, “IONIZABLE AMINE LIPIDS” (Intellia Therapeutics, Inc., priority 2018, published 2026).
# Where two headings read alike, the source gives them in different places.
# Assays:
# TTR = assay: Transthyretin (TTR) ELISA analysis of mouse serum after LNP dosing; type: in vivo; conditions: for response vs control in vivo at 0.1 mg/kg / response vs control in vivo at 0.03 mg/kg: Mus musculus, iv, read-out: Serum TTR % TSS
# Summary of the method: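 Female CD-1 mice aged 6-10 weeks were grouped by body weight and given LNPs by lateral tail vein injection (0.2 mL per animal, about 10 mL per kilogram). Mice were bled by cardiac puncture under isoflurane into serum separator tubes. Serum was diluted 10,000-fold for the 0.1 mpk dose, and total TTR was quantified with a Mouse Prealbumin (Transthyretin) ELISA Kit following the kit directions.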
# [1] = RNA encapsulation efficiency of LNP (Ribogreen fluorescence assay); type: physicochemical
# Summary of the method: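 LNP samples diluted in 1× TE buffer with 0.2% Triton X-100 (total RNA) or without it (free RNA), stained with RiboGreen for ~10 min at room temperature in the dark, read at ex 488/em 525 nm against RNA standard curves. Encapsulation efficiency = (Total RNA − Free RNA)/Total RNA.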
# B2M = B2M editing in mouse liver by NGS after i.v. LNP delivery of Cas9 mRNA and sgRNA; type: in vivo; conditions: for Editing (%) B2M liver: 6 days post-dose, G650 1:1
# Experimental: Preparations of various LNP compositions were prepared with amine lipids. In assays for percent liver editing in mice, Cas9 mRNA and chemically modified sgRNA were formulated in LNPs, at either a 1:1 w/w ratio or a 1:2 w/w ratio. LNPs are formulated with a composition of a given ionizable lipid (e.g. an amine lipid), DSPC, cholesterol, and PEG-2k-DMG, with a 6.0 N:P ratio.
# LNPs were administered to mice by a single dose at 0.1 mg/kg, unless otherwise noted and genomic DNA was isolated for NGS analysis as described below.
# CD-1 female mice, ranging from 6-10 weeks of age were used in each study. Animals were weighed and grouped according to body weight for preparing dosing solutions based on group average weight. LNPs were dosed via the lateral tail vein in a volume of 0.2 mL per animal (approximately 10 mL per kilogram body weight). The animals were periodically observed post dose for adverse effects for at least 24 hours post dose. Animals were euthanized at 6 or 7 days by exsanguination via cardiac puncture under isoflurane anesthesia. Blood was collected into serum separator tubes or into tubes containing buffered sodium citrate for plasma as described herein. For studies involving in vivo editing, liver tissue was collected from each animal for DNA extraction and analysis.
# Cohorts of mice were measured for liver editing by Next-Generation Sequencing (NGS).
# In brief, to quantitatively determine the efficiency of editing at the target location in the genome, genomic DNA was isolated and deep sequencing was utilized to identify the presence of insertions and deletions introduced by gene editing.
# PCR primers were designed around the target site (e.g., B2M), and the genomic area of interest was amplified. Additional PCR was performed according to the manufacturer's protocols (Illumina) to add the necessary chemistry for sequencing. The amplicons were sequenced on an Illumina MiSeq instrument. The reads were aligned to the […] after eliminating those having low quality scores. The resulting files containing the reads were mapped to the reference genome (BAM files), where reads that overlapped the target region of interest were selected and the number of wild type reads versus the number of reads which contain an insertion, substitution, or deletion was calculated.
# The editing percentage (e.g., the “editing efficiency” or “percent editing”) is defined as the total number of sequence reads with insertions or deletions over the total number of sequence reads, including wild type.
# CD-1 female mice were dosed i.v. at 0.1 mpk or 0.3 mpk. […] For animals dosed with G282 targeting TTR, blood and the liver were collected and serum TTR and editing were measured. For animals dosed with G650 targeting B2M, liver was collected and editing was measured.
# [2] = Example 55: 0.1 mpk i.v., 7 days post-dose, G282 1:1
# [3] = Example 58: 0.1 mpk i.v., 6 days post-dose, G282 1:1
# [4] = Example 59: 0.1 mpk i.v., 7 days post-dose, G282 1:1
# [5] = Example 62: 0.03 mpk i.v., 7 days post-dose, G282 1:2
# [6] = Example 62: 0.1 mpk i.v., 7 days post-dose, G282 1:2
# [7] = Example 63: 0.03 mpk i.v., 7 days post-dose, G282 1:1
# [8] = Example 63: 0.1 mpk i.v., 7 days post-dose, G282 1:1
# [9] = 144 h, Example 58: 0.1 mpk i.v., 6 days post-dose, G282 1:1
# [10] = 168 h, Example 59: 0.1 mpk i.v., 7 days post-dose, G282 1:1
# [11] = 168 h, Example 62: 0.03 mpk i.v., 7 days post-dose, G282 1:2
# [12] = 168 h, Example 62: 0.1 mpk i.v., 7 days post-dose, G282 1:2
# [13] = 168 h, Example 63: 0.03 mpk i.v., 7 days post-dose, G282 1:1
# [14] = 168 h, Example 63: 0.1 mpk i.v., 7 days post-dose, G282 1:1
# [15] = Table 14, Example 58: LNP, G282 (TTR) 1:1 w/w, N:P 6.0
# [16] = Table 16, Example 59: LNP, G282 (TTR) 1:1 w/w, N:P 6.0
# [17] = Table 22, Example 62: LNP, G282 (TTR), sgRNA:Cas9 mRNA 1:2 w/w, N:P 6.0
# [18] = Table 24, Example 63: LNP, G282 (TTR) 1:1 w/w, NP 6.0
# [19] = Example 56: 0.1 mpk i.v., 7 days post-dose, G282
"Encapsulation (%) [1, 15] [%]","Encapsulation (%) [1, 16] [%]","Encapsulation (%) [1, 17] [%]","Encapsulation (%) [1, 18] [%]",SMILES,Serum TTR (TTR; [3]) [µg/mL],Serum TTR (TTR; [4]) [µg/mL],Serum TTR (TTR; [5]) [µg/mL],Serum TTR (TTR; [6]) [µg/mL],Serum TTR (TTR; [7]) [µg/mL],Serum TTR (TTR; [8]) [µg/mL],response vs control in vivo at 0.1 mg/kg (TTR; [9]) [%],response vs control in vivo at 0.1 mg/kg (TTR; [10]) [%],response vs control in vivo at 0.03 mg/kg (TTR; [11]) [%],response vs control in vivo at 0.1 mg/kg (TTR; [12]) [%],response vs control in vivo at 0.03 mg/kg (TTR; [13]) [%],response vs control in vivo at 0.1 mg/kg (TTR; [14]) [%],also measured
97,96,97,98,"CCCCCCCCCOC(=O)CCCCCCCN(CCO)CCCCCCCC(OCCCCCCCC)OCCCCCCCC [Compound 1, nonyl 8-((8,8-bis(octyloxy)octyl)(2-hydroxyethyl)amino octanoate]",656,327,594,241,741.05,351.76,66,35,93,38,91.8,43.6,"TSS (serum TTR % TSS) (TTR; Example 53: 0.1 mpk i.v., 6 days post-dose, G282 1:1): 5 % TSS; Serum TTR (TTR; Example 53: 0.1 mpk i.v., CD-1 female mice, 6 days post-dose, G282 1:1): 19 µg/mL; TSS (serum TTR % TSS) (TTR; Example 53: 0.3 mpk i.v., 6 days post-dose, G282 1:1): 5 % TSS; Serum TTR (TTR; Example 53: 0.3 mpk i.v., CD-1 female mice, 6 days post-dose, G282 1:1): 5 µg/mL; Serum TTR (TTR; [2]): 391 µg/mL; Serum TTR (% TSS) (TTR; [2]): 34 % TSS; Serum TTR (TTR; Example 60: 0.1 mpk i.v., 6 days post-dose, G502 1:2): 353 µg/mL; response vs control in vivo at 0.1 mg/kg (TTR; 144 h, Example 60: 0.1 mpk i.v., 6 days post-dose, G502 1:2): 25%; Encapsulation (%) ([1]; Table 3, Example 52: LNP, Cas9 mRNA + sgRNA (G650) 1:1 w/w, N:P 6.0, Compound 19 50/9/38/3, others 50/10/38.5/1.5): 98%; Encapsulation (%) ([1]; Table 5, Example 53: LNP with gRNA G282 (TTR), 1:1 w/w, N:P 6.0): 97%; Encapsulation (%) ([1]; Table 5, Example 53: LNP with gRNA G650 (B2M), 1:1 w/w, N:P 6.0): 98%; Encapsulation (%) ([1]; Table 10, Example 55: LNP, G282 (TTR) 1:1 w/w, N:P 6.0): 97%; Encapsulation (%) ([1]; Table 18, Example 60: LNP, G502 (TTR), sgRNA:Cas9 mRNA 1:2 w/w, N:P 6.0): 97%; Editing (%) of B2M in mouse liver (B2M; Example 52: LNP single dose 0.1 mg/kg i.v., CD-1 female mice, sgRNA G650:Cas9 mRNA 1:1, NGS): 36.8%; Editing (%) B2M liver (B2M; Example 53: 0.1 mpk i.v., CD-1 female mice): 41.0%; Editing (%) B2M liver (B2M; Example 53: 0.3 mpk i.v., CD-1 female mice): 62.9%; B2M editing in the liver compared with Compound 19 (B2M; Example 53 text: 0.1 and 0.3 mpk): higher B2M editing in the liver than Compound 19 at each dose; dose response of B2M editing in liver (B2M; Example 53 text: 0.1 mpk vs 0.3 mpk): increased editing of B2M in liver significantly between the 0.1 mpk and 0.3 mpk doses"
91,–,94,–,"CCCCCCCCOC(CCCCCCCN(CCO)CCCCCCCC(=O)OC(CC)CCCCCCCC)OCCCCCCCC (centres unmarked) [Compound 17, undecan-3-yl 8-((8,8-bis(octyloxy)octyl)(2-hydroxyethyl)amino)octanoate]",479,–,495,304,–,–,48,–,78,48,–,–,–
–,98,–,–,"CCCCCCCCCOC(=O)CCCCCCCN(CCO)CCCCCCCC(=O)OC(CCCCCCCC)CCCCCCCC [Compound 18, heptadecan-9-yl 8-((2-hydroxyethyl)(8-(nonyloxy)-8-oxooctyl)amino)octanoate, reference compound]",–,324,–,–,–,–,–,35,–,–,–,–,"Serum TTR (TTR; [19]): 415 µg/mL; Serum TTR (% TSS) (TTR; [19]): 52 % TSS; Serum TTR (TTR; Example 61: 0.1 mpk i.v., 7 days post-dose, G282 1:1): 615 µg/mL; response vs control in vivo at 0.1 mg/kg (TTR; 168 h, Example 61: 0.1 mpk i.v., 7 days post-dose, G282 1:1): 48%; Encapsulation (%) ([1]; Table 12, Example 56: LNP, G282 (TTR), ratio 6.0): 81%; Encapsulation (%) ([1]; Table 20, Example 61: LNP, G282 (TTR) 1:1 w/w, N:P 6.0): 90%"
–,–,–,97,"CCCCCCCCOC(CCCCCCCN(CCO)CCCCCCCC(=O)OC(CC)CCCCCC)OCCCCCCCC (centres unmarked) [Compound 28, nonan-3-yl 8-((8,8-bis(octyloxy)octyl)(2-hydroxyethyl)amino)octanoate]",–,–,–,–,493.60,321.26,–,–,–,–,61.2,39.8,–
